Patent publication US7807854B2, “Effective use method of medicaments and method of preventing expression of side effect” (priority 2004, dated 2010)

Tests used:
Assay type in all cases: in vivo
skin allograft = assay: Prolonging effect on skin allograft survival between MHC-compatible rat strains (LEW donor, F344 recipient)
Source text: Five animals were included per group, and all rats were bread in separate cages. LEW(RT1^l) was selected as donor, and F344(RT1^lvl) was selected as recipient. A part of dermis (1.8×1.8 cm) on the back of recipient was excised, and after giving several drops of penicillin solution (40,000 U/mL, in saline) thereon, a full thickness skin graft (1.8×1.8 cm) prepared from abdominal part of donor was put thereon. First-aid adhesive tape (30×72 mm) was applied so that the center pad thereof lies on the graft, and secured by binding aeration tape (adhesive bandage, 3.8×15 cm) therearound. At 5 days, the first-aid adhesive tape and the aeration tape were removed by cutting with scissors.
Drug administration was conducted by orally administering 0.5 mL/100 g B.W. of drug once a day everyday from the day of skin transplantation. Control group was received distilled water. As the CsA, Sandimmun injection (50 mg/mL) diluted in distilled water was administered. As the FK506, the filling of Prograf capsule (Fujisawa Pharmaceutical Co., Ltd.) suspended in distilled water was administered. […] A combinational administration group was received a mixture prepared by mixing liquids to be administered right before administration.
Grafts were observed everyday from fifth day of transplantation at which the first-aid adhesive tape was removed, and the condition that 90% or more of graft epithelium necrotized to turn brown was determined as occurrence of rejection. Number of days from transplantation to determination of rejection was defined as a survival time.
Mean value of survival times for each group was calculated as a mean survival time (MST). In each group (n=5), the third-longest survival time was defined as a median value.

adjuvant arthritis = assay: Rat adjuvant arthritis (AA) model, hind limb volume increase; details: for Inhibition of adjuvant arthritis (hind limb volume increase): oral once daily, Day 21
Protocol: In a footpad of right hind limb of 6 or 7-week-old female LEW/Crj rat (Charles River Japan, Inc.), 0.05 mL (0.6 mg/animal) of killed M. butyricum (12 mg/mL) suspended in liquid paraffin was intradermally injected to cause arthritis (Day 0). Test compound was dissolved or suspended in pure water and orally administered in a volume of 0.5 mL per 100 g of body weight of rat. Adjuvant control was received only pure water. As for the combinational administration group, an aqueous solution of KNF-299 and an aqueous solution of MTX(Sigma) were administered after being mixed before administration. Administration was conducted once a day everyday from Day 0 to end of the experiment. Evaluation of arthritis was made by measuring volumes of left and right hind limbs by using a volume meter (MK-550, Muromachi Kikai) at Day 0, 3, 8, 14, 17, and 21, and determining an increase relative to hind limb at Day 0.

transplanted heart = assay: Prolonging effect on heart graft survival between MHC-incompatible rat strains (DA donor, LEW recipient)
Protocol: Effect of KNF-299 was examined in allogeneic heart transplantation between MHC-incompatible rats. Using combination of DA (RT1^a) rat as a donor, and LEW (RT1^l) rat as a recipient, heterotopic heart transplantation in which heart of donor is joined to neck vessel of recipient with a cuff was conducted with reference to a literature (Microsurgery; 21, 16-21, 2001) or the like.
Drug was administered orally once a day everyday from the day of heart transplantation. MPA was prepared from the product purchased from Wako Pure Chemical Industries, Ltd. so that the concentration was 20 mg/mL in a saline containing 0.5% carboxymethyl cellulose, 0.4% Tween 80, and 0.9% benzyl alcohol, and administered in 0.1 mL/100 g B.W.
KNF-299 was dissolved in distilled water in a concentration of 0.06 mg/mL, and administered in 0.5 mL/100 g B.W. A control group was received a vehicle used for MPA administration liquid.
Cardiac pulsation of the transplanted heart was checked by inspection or palpation, and determination of rejection was made when cardiac pulsation stopped. Number of days from transplantation to determination of rejection was defined as survival time. Mean value of survival time in each group was calculated as mean survival time (MST).

[1] = FK506 3 mg/kg oral once daily, third test (headed Test 2)
[2] = KNF-299 0.03 mg/kg oral once daily, Test 2
[3] = KNF-299 0.1 mg/kg oral once daily, third test (headed Test 2)

`C=CC[C@@H]1/C=C(\C)C[C@H](C)C[C@H](OC)[C@H]2O[C@@](O)(C(=O)C(=O)N3CCCC[C@H]3C(=O)O[C@H](/C(C)=C/[C@@H]3CC[C@@H](O)[C@H](OC)C3)[C@H](C)[C@@H](O)CC1=O)[C@H](C)C[C@@H]2OC` [FK506, tacrolimus, reference compound] was tested, and the “Survival time (day) of skin graft, MST” value (skin allograft; [1]) was 9.2 days and the “Survival time (day) of skin graft, Median” value (shortened to “Survival time (day) … Median”) (skin allograft; [1]) was 9.0 days.
In the case of `NC(CO)(CO)CCc1ccc(Sc2cccc(OCc3ccccc3)c2)cc1Cl` [KNF-299, 2-amino-2-[4-(3-benzyloxyphenylthio)-2-chlorophenyl]ethyl-1,3-propanediol], the “Survival time (day) of skin graft, MST” value (skin allograft; [2]) was 9.0 days, the “Survival time (day) … Median” value (skin allograft; [2]) was 9.0 days and the “Survival time (day) of skin graft, MST” value (skin allograft; [3]) was 8.8 days. The “Survival time (day) … Median” value (skin allograft; [3]) was 9.0 days, the “Survival time (day) … Median” value (skin allograft; KNF-299 3 mg/kg oral once daily, Test 1) was >30 days and the “Effect on skin graft survival (in words)” value (skin allograft; KNF-299 3 mg/kg single administration) was “clear prolonging effect”. The “Inhibition of adjuvant arthritis (hind limb volume increase)” value (from here on “Inhibition … (hind limb volume increase)”) (adjuvant arthritis; KNF-299 0.01 mg/kg alone) was 36%, the “Ability to prevent onset of adjuvant arthritis” value (“Ability to prevent onset” for short) (adjuvant arthritis; KNF-299 0.1 mg/kg p.o. once daily, FIG. 1) was “reaches almost maximum” and the “Survival time (day) of transplanted heart, MST” value (transplanted heart; KNF-299 0.3 mg/kg oral once daily) was 7.0 days. The “Prolonging effect on heart graft mean survival time compared to control group” value (transplanted heart; KNF-299 0.3 mg/kg single administration) was 1.2 days.
For `COc1c(C)c2c(c(O)c1C/C=C(\C)CCC(=O)O)C(=O)OC2` [MPA, mycophenolic acid, reference compound], the “Survival time (day) of transplanted heart, MST” value (transplanted heart; MPA 20 mg/kg oral once daily) was >54.4 days and the “Rejection preventing effect on transplanted heart (in words)” value (transplanted heart; MPA 20 mg/kg single administration) was “insufficient”.
`CN(Cc1cnc2nc(N)nc(N)c2n1)c1ccc(C(=O)N[C@@H](CCC(=O)O)C(=O)O)cc1` [MTX, methotrexate] was tested, and the “Inhibition … (hind limb volume increase)” value (adjuvant arthritis; MTX 0.025 mg/kg alone, not significant) was 20%, the “Ability to prevent onset” value (adjuvant arthritis; MTX 0.03 mg/kg oral once daily, FIG. 2) was “not observed” and the “Inhibition … (hind limb volume increase)” value (adjuvant arthritis; MTX 0.05 mg/kg alone, not significant) was 35%. The “Ability to prevent onset” value (adjuvant arthritis; MTX 0.1 mg/kg oral once daily, FIG. 2) was “reached maximum”.
